Patent US20110178456A1, “ASSISTING TRANSDERMAL DRUG DELIVERY BY MEANS OF TISSUE FREEZING, VACUUM PRESSURE AND PHOTOHEATING PROCEDURES” (THE REGENTS OF THE UNIVERSITY OF CALIFORNIA, priority 2009, published 2011)

Experiments:
[1] = assay type: in vitro ADME, pork
Procedure: A study comprising applying conjugated FITC-Dextran with 4000 Daltons molecular weight as a surrogate of water-soluble drugs on ex vivo pork skin samples was performed. Thermoelectric coolers and other cooling devices can be used as well. In these experiments […] was used as the cryogenic agent. Exposure time can range from minutes to millisecond exposures, depending on the type of coolant used. […] For applying suction, any method of creating suction or positive pressure on the skin can be used. For example, the Isolaze device from […] can be used to apply a suction of 380 mm Hg. To investigate this, a study was initiated consisting of applying conjugated FITC-Dextran with 4000 Daltons molecular weight as a surrogate of water-soluble drugs on ex vivo pork skin samples. After exposing skin samples for 30 min to 3 hours after topical application, a cross-sections of skin was cut ( 20 microns thick) to observe directly the Dextran penetration via the intensity of the FITC fluorescence with the aid of a confocal fluorescent microscope.

[2] = Case clinical study: penetration after topical application with cryo-cracking versus simple rubbing; assay type: in vivo; settings: 3 hrs after topical application using cryo-cracking procedure
Excerpt: This study also included FITC with Dextran of 4 kDa and 70 kDA.

Molecule | transdermal delivery of drug surrogate using the cryo-cracking process [1] | penetration into the stratum corneum and epidermis down the microcracks, compared to penetration after simple rubbing [2]
Dylight | delivered | –
O=C1OC2(c3ccc(O)cc3Oc3cc(O)ccc32)c2ccc(N=C=S)cc21 [FITC] | effectively delivered | much more significant
